According to the NIST ThermoML archive (doi:10.1021/je9006579):

What was measured:
[1] = molar heat capacity at constant pressure; xn = mol fraction of the nth substance listed; conditions: 101 kPa, Liquid
[2] = molar heat capacity at constant pressure; conditions: 101.33 kPa, Liquid, Cooling curve

C1N2CN3CN1CN(C2)C3 [1,3,5,7-tetraazaadamantane] + CC(=O)O
molar heat capacity at constant pressure [J/K/mol], [1], Vacuum adiabatic calorimetry
Conditions | x1 = 0.022 | x1 = 0.0454 | x1 = 0.0703 | x1 = 0.0967 | x1 = 0.1249 | x1 = 0.1551 | x1 = 0.1873 | x1 = 0.2221
308.15 K | 137.35 | 144.8 | 151.94 | 159.76 | 170.64 | 180.97 | 191.09 | 203.69
313.15 K | 142.53 | 150.32 | 157.16 | 165.58 | 176.29 | 187.61 | 198.06 | 210.89
318.15 K | 147.51 | 155.25 | 162.14 | 170.38 | 181.92 | 193.63 | 203.66 | 216.63
323.15 K | 152.45 | 160.18 | 166.78 | 175.7 | 186.63 | 198.28 | 209.59 | 222.76
328.15 K | 157.24 | 165.08 | 172 | 180.88 | 191.96 | 204.18 | 214.96 | –
333.15 K | 161.64 | 169.05 | 176.96 | 185.28 | 197.37 | 209.36 | 220.93 | 235.17

CC(=O)O [acetic acid]
[2]
Conditions | molar heat capacity at constant pressure [J/K/mol]
313.15 K | 135.5
333.15 K | 137.21

CC(=O)O [acetic acid] + CC(=O)OC(C)=O
[1], Cooling curve, x2 = 0
Conditions | molar heat capacity at constant pressure [J/K/mol]
308.15 K | 134.93
313.15 K | 135.5
318.15 K | 136
323.15 K | 136.35
328.15 K | 136.87
333.15 K | 137.21

CC(=O)OC(C)=O [ethanoic anhydride]
[2]
Conditions | molar heat capacity at constant pressure [J/K/mol]
313.15 K | 200.73
333.15 K | 204.34
